Our source for the IC50 values is ChEMBL document CHEMBL3797030, “Anti-hepatitis C Virus Natural Product from a Fungus, Penicillium herquei” (J Nat Prod, 2016).

The subject of this test is Hepatitis C virus. Put plainly: Antiviral activity against Hepatitis C virus J6/JFH1 infected in human Huh7.5.1 cells assessed as reduction in amount of core HCV protein after 72 hrs by focus formation assay. Format: functional, organism-based, Hepacivirus hominis. The settings on record: J6/JFH1, Huh-7, 72 h.
The term IC50 denotes the concentration needed to halve the response being measured. As for `COc1c(O)c2c3c(c1O)C(=O)[C@@]1(O)C(=C3C(C)=CC2=O)O[C@H](C)C1(C)C`, the IC50 is greater than 40 µM.
As for `COC1=N[C@]23CN4CC[C@@](C)(O)[C@]14C[C@H]2C(C)(C)[C@@]1(C3)C(=O)Nc2c1ccc1c2C(=O)CC(C)(C)O1`, the figure is greater than 40 µM; as for `C[C@H]1CCN2C[C@]34Cc5c([nH]c6ccccc56)C(C)(C)[C@@H]3C[C@]12C(=O)N4`, greater than 40 µM.
As for `C[C@H]1CCN2CC34Cc5c([nH]c6c7c(ccc56)OC(C)(C)CC7=O)C(C)(C)[C@@H]3CC12C(=O)N4` (some centres not stated), the figure is 5.1 µM; as for `C[C@H]1CCN2C[C@]34C[C@@]5(C(=O)Nc6c5ccc5c6C(=O)CC(C)(C)O5)C(C)(C)[C@@H]3C[C@]12C(=O)N4`, greater than 40 µM.
As for `COc1c(O)c2c3c(c1O)C(=O)[C@@]1(O)C(=C3C(C)=C(O)C2=O)O[C@@H](C)C1(C)C`, the IC50 was greater than 40 µM.
As for `COC1=C(O)C2=C3O[C@H](C)C(C)(C)[C@]3(O)C(=O)c3c(C)cc(O)c(c32)C1=O`, the figure is greater than 40 µM.
